Like-named read-outs stand apart in the source and are kept apart here. One block for each compound: values may come before it.
How the values were obtained:
[1] = Body weight changes in LE rats after bolus SC dosing; assay type: in vivo, rat; conditions: 30 mcg/kg SC bolus
[2] = Acute food intake inhibition in Long Evans rats after bolus SC dosing (BioDAQ); assay type: in vivo, rat; conditions: 30 mcg SC bolus
[3] = Weight-loss efficacy in LE DIO rats after bolus SC dosing; assay type: in vivo, rat; conditions: male LE DIO rats, from baseline and vehicle control (ΔΔ %)
[4] = Solubility in saline or DI water at room temperature (visual inspection); assay type: physicochemical
[5] = Stability in DMSO or DI water at 37° C. (purity by LC/MS and HPLC); assay type: physicochemical
[6] = cited from earlier work
[7] = Comparative in vivo weight loss potency, A120 vs semaglutide, DIO rats (28 days); parameters: species or system rat
[8] = Body composition (quantitative magnetic resonance) in male LE DIO rats; assay type: in vivo, rat; conditions: day 26
[9] = Body composition in male ZDF rats; assay type: in vivo, rat; conditions: day 25
[10] = tested on: HbA1c; assay: Comparative in vivo HbA1c lowering potency, A120 vs semaglutide (28 days); parameters: species or system rat
[11] = solute Saline, TFA salt unless indicated otherwise
[12] = ΔΔ % weight decrease in DIO rat at day 27
[13] = ΔΔ % change in HbA1c in ZDF rat at day 27

Compound: CC[C@H](C)[C@@H]1NC(=O)[C@H](Cc2ccccc2)NC(=O)[C@H](CCCCN)NC(=O)[C@@H](NC(=O)[C@@H](NC(=O)[C@H](C)NC(=O)[C@H](CCC(=O)O)NC(=O)[C@H](CCCCNC(=O)CC[C@H](NC(=O)CC[C@H](NC(=O)COCCOCCNC(=O)CCCCCCCCCCCCCCCCCCC(=O)O)C(=O)O)C(=O)O)NC(=O)[C@H](CCC(=O)O)NC(=O)[C@H](Cc2ccc(O)cc2)NC(=O)[C@H](CCC(N)=O)NC(=O)[C@H](CCCCN)NC(=O)[C@H](CO)NC(=O)[C@@H](NC(=O)[C@H](CC(=O)O)NC(=O)[C@H](CO)NC(=O)[C@@H](NC(=O)[C@H](Cc2ccccc2)NC(=O)[C@@H](NC(=O)CNC(=O)[C@H](CCC(=O)O)NC(=O)C(C)(C)NC(=O)[C@@H](N)Cc2c[nH]cn2)[C@@H](C)O)[C@@H](C)O)C(C)C)C(C)C)CCCCNC(=O)CC[C@@H](C(=O)N[C@@H](Cc2c[nH]c3ccccc23)C(=O)N[C@@H](CC(C)C)C(=O)N[C@@H](CCCCN)C(=O)N[C@@H](CC(N)=O)C(=O)NCC(=O)NCC(=O)N2CCC[C@H]2C(=O)N[C@@H](CO)C(=O)N[C@@H](CO)C(=O)NCC(=O)N[C@@H](C)C(=O)N2CCC[C@H]2C(=O)N2CCC[C@H]2C(=O)N2CCC[C@H]2C(=O)N[C@@H](CO)C(N)=O)NC1=O [Compound A135]
% Weight change from Vehicle, 1 d [1]: −4.3%
% Weight change from Vehicle, 2 d [1]: −7.4%
% Weight change from Vehicle, 3 d [1]: −6.4%
% Weight change from Vehicle, 4 d [1]: −4.2%
% Food Intake Inhibition from Vehicle, 0-24 hr [2]: −52.6%
% Food Intake Inhibition from Vehicle, 25-48 hr [2]: −62.2%
% Food Intake Inhibition from Vehicle, 49-72 hr [2]: −29.4%
% Food Intake Inhibition from Vehicle, 73-96 hr [2]: −8.0%
DIO Weight Loss (30 mcg/kg SC bolus) % Weight change from Vehicle 2 d [3]: −3.7%
DIO Weight Loss (30 mcg/kg SC bolus) % Weight change from Vehicle 3 d [3]: −4.8%
DIO Weight Loss (30 mcg/kg SC bolus) % Weight change from Vehicle 4 d [3]: −4.3%

Compound: CC[C@H](C)[C@@H]1NC(=O)[C@H](Cc2ccccc2)NC(=O)[C@H](CCCCN)NC(=O)[C@@H](NC(=O)[C@H](C)NC(=O)[C@H](C)NC(=O)[C@H](CCC(=O)O)NC(=O)[C@H](CCCCNC(=O)CC[C@H](NC(=O)CC[C@H](NC(=O)COCCOCCNC(=O)CCCCCCCCCCCCCCCCCCC(=O)O)C(=O)O)C(=O)O)NC(=O)[C@H](CCC(=O)O)NC(=O)[C@H](Cc2ccc(O)cc2)NC(=O)[C@H](CCC(N)=O)NC(=O)[C@H](CCCCN)NC(=O)[C@H](CO)NC(=O)[C@@H](NC(=O)[C@H](CC(=O)O)NC(=O)[C@H](CO)NC(=O)[C@@H](NC(=O)[C@H](Cc2ccccc2)NC(=O)[C@@H](NC(=O)CNC(=O)[C@H](CCC(=O)O)NC(=O)C(C)(C)NC(=O)[C@@H](N)Cc2c[nH]cn2)[C@@H](C)O)[C@@H](C)O)C(C)C)CCCCNC(=O)CC[C@@H](C(=O)N[C@@H](Cc2c[nH]c3ccccc23)C(=O)N[C@@H](CC(C)C)C(=O)N[C@@H](CCCCN)C(=O)N[C@@H](CC(N)=O)C(=O)NCC(=O)NCC(=O)N2CCC[C@H]2C(=O)N[C@@H](CO)C(=O)N[C@@H](CO)C(=O)NCC(=O)N[C@@H](C)C(=O)N2CCC[C@H]2C(=O)N2CCC[C@H]2C(=O)N2CCC[C@H]2C(=O)N[C@@H](CO)C(N)=O)NC1=O [Compound A137]
% Weight change from Vehicle, 1 d [1]: −4.7%
% Weight change from Vehicle, 2 d [1]: −6.6%
% Weight change from Vehicle, 3 d [1]: −6.0%
% Weight change from Vehicle, 4 d [1]: −4.8%
% Food Intake Inhibition from Vehicle, 0-24 hr [2]: −67.0%
% Food Intake Inhibition from Vehicle, 25-48 hr [2]: −69.0%
% Food Intake Inhibition from Vehicle, 49-72 hr [2]: −25.7%
% Food Intake Inhibition from Vehicle, 73-96 hr [2]: −14.7%
DIO Weight Loss (30 mcg/kg SC bolus) % Weight change from Vehicle 2 d [3]: −3.0%
DIO Weight Loss (30 mcg/kg SC bolus) % Weight change from Vehicle 3 d [3]: −2.9%
DIO Weight Loss (30 mcg/kg SC bolus) % Weight change from Vehicle 4 d [3]: −2.7%

solubility ([4]; Solubility (mg/mL) in DI water): > 70 mg/mL
solubility ([4]; Solubility (mg/mL) in saline): > 106 mg/mL
Compound: CC[C@H](C)[C@H](NC(=O)[C@H](Cc1ccccc1)NC(=O)[C@H](CCC(=O)O)NC(=O)[C@H](CCCNC(=N)N)NC(=O)[C@H](C)NC(=O)[C@H](C)NC(=O)[C@H](CCC(=O)O)NC(=O)[C@H](CCCCNC(=O)CC[C@H](NC(=O)CC[C@H](NC(=O)COCCOCCNC(=O)CC[C@H](NC(=O)CC[C@H](NC(=O)CCCCCCCCCCCCCCCCCCC(=O)O)C(=O)O)C(=O)O)C(=O)O)C(=O)O)NC(=O)[C@H](CCC(=O)O)NC(=O)[C@H](Cc1ccc(O)cc1)NC(=O)[C@H](CCC(N)=O)NC(=O)[C@H](CCCCN)NC(=O)[C@H](CO)NC(=O)[C@H](CC(C)C)NC(=O)[C@H](CC(=O)O)NC(=O)[C@H](CO)NC(=O)[C@@H](NC(=O)[C@H](Cc1ccccc1)NC(=O)[C@@H](NC(=O)CNC(=O)[C@H](CCC(=O)O)NC(=O)C(C)(C)NC(=O)[C@@H](N)Cc1c[nH]cn1)[C@@H](C)O)[C@@H](C)O)C(=O)N[C@@H](CCC(=O)O)C(=O)N[C@@H](Cc1c[nH]c2ccccc12)C(=O)N[C@@H](CC(C)C)C(=O)N[C@@H](CCCCN)C(=O)N[C@@H](CC(N)=O)C(=O)NCC(=O)NCC(=O)N1CCC[C@H]1C(=O)N[C@@H](Cc1c[nH]cn1)C(=O)N[C@@H](CO)C(=O)NCC(=O)N[C@@H](C)C(=O)N1CCC[C@H]1C(=O)N1CCC[C@H]1C(=O)N1CCC[C@H]1C(=O)N[C@@H](CO)C(N)=O [Compound A154]

Stability @ 37° C. (% purity) Day 14 ([5]; solute DI H2O, 37° C., TFA salt unless indicated otherwise): 96.6%
Stability @ RT (% purity) Day 0 ([5]; solute DI H2O, TFA salt unless indicated otherwise, 1 mg/ml): 95.8%
Stability @ RT (% purity) Day 14 ([5]; solute DI H2O, TFA salt unless indicated otherwise): 94.7%
Stability @ RT (% purity) Day 28 ([5]; solute DI H2O, Day 28, TFA salt unless indicated otherwise): 94.5%
Stability @ 37° C. (% purity) Day 14 ([5]; solute Saline, 37° C., TFA salt unless indicated otherwise): 96.7%
Appearance of stability sample (cloudy / particulates) ([5]; solute Saline, 37° C., Day 28): (c)
Stability @ 37° C. (% purity) Day 28 ([5]; solute Saline, 37° C., Day 28, TFA salt unless indicated otherwise): 85.5%
Stability @ RT (% purity) Day 0 [5, 11]: 97.9%
Stability @ RT (% purity) Day 14 [5, 11]: 93.7%
Stability @ RT (% purity) Day 28 ([5]; solute Saline, Day 28, TFA salt unless indicated otherwise): 94.9%
solubility ([4]; DI water, room temperature, as TFA salt unless indicated otherwise, read-out: Solubility (mg/mL) in DI water): > 101 mg/mL
solubility ([4]; saline, room temperature, as TFA salt unless indicated otherwise, read-out: Solubility (mg/mL) in saline): > 101 mg/mL
Compound: CC[C@H](C)[C@H](NC(=O)[C@H](Cc1ccccc1)NC(=O)[C@H](CC(C)C)NC(=O)[C@H](CCCNC(=N)N)NC(=O)[C@@H](NC(=O)[C@H](C)NC(=O)[C@H](CCC(=O)O)NC(=O)[C@H](CCCCNC(=O)CC[C@H](NC(=O)COCCOCCNC(=O)CCCCCCCCCCCCCCCCCCC(=O)O)C(=O)O)NC(=O)[C@H](CCC(=O)O)NC(=O)[C@H](Cc1ccc(O)cc1)NC(=O)[C@H](CCC(N)=O)NC(=O)[C@H](CCCCN)NC(=O)[C@H](CO)NC(=O)[C@H](CC(C)C)NC(=O)[C@H](CC(=O)O)NC(=O)[C@H](CCC(=O)O)NC(=O)[C@@H](NC(=O)[C@H](Cc1ccccc1)NC(=O)[C@@H](NC(=O)CNC(=O)[C@H](CCC(=O)O)NC(=O)C(C)(C)NC(=O)[C@@H](N)Cc1c[nH]cn1)[C@@H](C)O)[C@@H](C)O)C(C)C)C(=O)N[C@@H](CO)C(=O)N[C@@H](Cc1c[nH]c2ccccc12)C(=O)N[C@@H](CC(C)C)C(=O)N[C@@H](CCCCN)C(=O)N[C@@H](CC(N)=O)C(=O)NCC(=O)NCC(=O)N1CCC[C@H]1C(=O)N[C@@H](CO)C(=O)N[C@@H](CO)C(=O)NCC(=O)N[C@@H](C)C(=O)N1CCC[C@H]1C(=O)N1CCC[C@H]1C(=O)N1CCC[C@H]1C(=O)N[C@@H](CO)C(N)=O [Compound A162]

Compound: human amylin: 37-residue polypeptide hormone co-secreted with insulin from pancreatic β-cells
half-life in serum [6]: about 13 minutes

Compound: semaglutide
% Weight loss EC50 [7, 12]: 3.9 ng/mL
% Weight loss ED50 [7, 12]: 23 µg/kg/day
% Weight loss at 300 mcg/kg/day dose ([7]; ΔΔ % weight decrease in DIO rat at day 27, 300 mcg/kg/day): 24%
changes in body composition [8]: primarily due to fat mass loss
changes in body composition [9]: primarily due to fat mass loss
% Change HbA1c EC50 [10, 13]: 6 ng/mL
% Change HbA1c ED50 [10, 13]: 36 µg/kg/day
% Change HbA1c at 300 mcg/kg/day dose ([10]; ΔΔ % change in HbA1c in ZDF rat at day 27, 300 mcg/kg/day): 4.8%
